Laboratory results reported in patent publication US20160045505A1, “COMPOUNDS AND COMPOSITIONS FOR THE TREATMENT OF PARASITIC DISEASES” (NOVARTIS AG, priority 2013, published 2016).

Columns and labels:
[1] = tested on: L. donovani HU3 strain in mouse peritoneal macrophages; assay: Assay for proliferation of Leishmania parasites in infected mouse peritoneal macrophages (SybrGreen staining, high-content imaging, 5 days); type: cell-based, Leishmania donovani; conditions: Leishmania donovani, Peritoneal macrophage, L. donovani in mouse peritoneal macrophages, inhibition of proliferation; read-out: L. donovani Macrophage EC50
[2] = tested on: Leishmania donovani axenic amastigote parasites; assay: Leishmania donovani axenic amastigote proliferation assay (Cell TiterGlo luminescence, 2 day incubation); type: cell-based; conditions: Leishmania donovani, axenic amastigotes, inhibition of proliferation; read-out: L. donovani amastigotes EC50
[3] = tested on: Trypanosoma brucei Lister 427 strain, bloodstream form; assay: Assay for proliferation of kinetoplastid parasite Trypanosoma brucei (Cell Titer Glo, 48 hours); type: cell-based; conditions: Trypanosoma brucei, T. brucei Lister 427 bloodstream form, inhibition of proliferation; read-out: T. brucei EC50
In short: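 Bloodstream-form T. brucei Lister 427 in HMI-9 medium was exposed to compound (DMSO vehicle) for 48 hours at 37° C, 5% CO2. Parasite growth was read as ATP by CellTiter-Glo luminescence, with EC50 calculated from percent inhibition.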

[4] = tested on: Trypanosoma cruzi amastigotes (Tulahuen strain expressing Lac-Z) cultured in 3T3 fibroblast cells; assay: microbe, parasite or virus in culture; type: cell-based; conditions: Trypanosoma cruzi, TULAHUEN, Fibroblast, T. cruzi amastigotes in 3T3 fibroblast cells, inhibition of proliferation; read-out: T cruzi EC50

| SMILES | EC50 [1] | EC50 [2] | EC50 [3] | EC50 [4] |
| --- | --- | --- | --- | --- |
| CC1(C(=O)Nc2cnc3nc(-c4cc(NC(=O)N5CCCC5)ccc4F)cn3c2)CC(F)(F)C1 [Compound 146] | 7.18 µM | 1.05 µM | 0.236 µM | > 20 µM |
| O=C(Nc1cnc2nc(-c3cc(NC(=O)N4CCCC4)ccc3F)cn2c1)c1ccccn1 [Compound 147] | 0.067 µM | 0.074 µM | 0.019 µM | 0.065 µM |
| Cc1csc(C(=O)Nc2cnc3nc(-c4cc(NC(=O)c5oc(C)nc5C)ccc4F)cn3c2)n1 [Compound 148] | 0.222 µM | 0.051 µM | 0.061 µM | 0.09 µM |
| Cc1nc(C)c(C(=O)Nc2ccc(F)c(-c3cn4cc(NC(=O)C5CCCO5)cnc4n3)c2)o1 (stereo not shown) [Compound 149] | 0.617 µM | 0.241 µM | 0.516 µM | 1.88 µM |
| Cc1nc(C)c(C(=O)Nc2ccc(F)c(-c3cn4cc(NC(=O)c5oc(C)nc5C)cnc4n3)c2)o1 [Compound 150] | 43.8 µM | 0.532 µM | 0.506 µM | > 20 µM |
| Cc1nc(C)c(C(=O)Nc2ccc(F)c(-c3cn4cc(NC(=O)C5CN(C)CCO5)cnc4n3)c2)o1 (stereo not shown) [Compound 152] | 2.38 µM | 1.73 µM | 0.425 µM | 4.67 µM |
| Cc1nc(C)c(C(=O)Nc2ccc(F)c(-c3cn4cc(NC(=O)C5(C#N)CC5)cnc4n3)c2)o1 [Compound 153] | 0.901 µM | 0.348 µM | 0.135 µM | 3.4 µM |
| Cc1nc(C)c(C(=O)Nc2ccc(F)c(-c3cn4cc(NC(=O)C5CCCOC5)cnc4n3)c2)o1 (stereo not shown) [Compound 154] | 2.53 µM | 0.997 µM | 1.48 µM | 6.18 µM |
| Cc1nc(C)c(C(=O)Nc2ccc(F)c(-c3cn4cc(NC(=O)CC5CCCCO5)cnc4n3)c2)o1 (stereo not shown) [Compound 155] | 3.72 µM | 1.55 µM | 0.796 µM | 2.41 µM |
| Cc1nc(C)c(C(=O)Nc2ccc(F)c(-c3cn4cc(NC(=O)C5CCC(=O)O5)cnc4n3)c2)o1 (stereo not shown) [Compound 156] | > 50 µM | 3.88 µM | 10.6 µM | > 20 µM |
| Cc1nc(C)c(C(=O)Nc2ccc(F)c(-c3cn4cc(NC(=O)[C@@H]5[C@@H]6CCC(O6)[C@@H]5N)cnc4n3)c2)o1 [Compound 157] | > 50 µM | > 25 µM | 31.3 µM | > 20 µM |
| Cc1nc(C)c(C(=O)Nc2ccc(F)c(-c3cn4cc(NC(=O)C5CCOCC5)cnc4n3)c2)o1 [Compound 158] | > 50 µM | 1.92 µM | 4.1 µM | > 20 µM |
| Cc1nc(C)c(C(=O)Nc2ccc(F)c(-c3cn4cc(NC(=O)C5CCOC(C)(C)C5)cnc4n3)c2)o1 (stereo not shown) [Compound 159] | 10.1 µM | 2.89 µM | 1.47 µM | 9.95 µM |
| Cc1nc(C)c(C(=O)Nc2ccc(F)c(-c3cn4cc(NC(=O)[C@H]5NCC[C@@H]5O)cnc4n3)c2)o1 [Compound 160] | > 50 µM | > 25 µM | 28.7 µM | > 20 µM |
| Cc1nc(C)c(C(=O)Nc2ccc(F)c(-c3cn4cc(NC(=O)[C@@H]5CCCO5)cnc4n3)c2)o1 [Compound 161] | 0.655 µM | 0.206 µM | 0.17 µM | 2.54 µM |
| Cc1nc(C(=O)Nc2cnc3nc(-c4cc(NC(=O)c5oc(C)nc5C)ccc4F)cn3c2)c(C)o1 [Compound 162] | 0.54 µM | 0.065 µM | 0.052 µM | 0.127 µM |
| Cc1nc(C)c(C(=O)Nc2ccc(F)c(-c3cn4cc(NC(=O)[C@](C)(O)C(F)(F)F)cnc4n3)c2)o1 [Compound 163] | 4.45 µM | 0.83 µM | 0.399 µM | 10.9 µM |
| Cc1nc(C)c(C(=O)Nc2ccc(F)c(-c3cn4cc(NC(=O)[C@H]5CCCO5)cnc4n3)c2)o1 [Compound 164] | 0.913 µM | 0.28 µM | 0.196 µM | 1.99 µM |
| Cc1nc(C)c(C(=O)Nc2ccc(F)c(-c3cn4cc(NC(=O)C5CCCCN5C)cnc4n3)c2)o1 (stereo not shown) [Compound 165] | > 50 µM | > 25 µM | 1.45 µM | 5.18 µM |
| COCCC(=O)Nc1cnc2nc(-c3cc(NC(=O)c4oc(C)nc4C)ccc3F)cn2c1 [Compound 166] | > 46.3 µM | 2.29 µM | 1.01 µM | > 20 µM |
| Cc1nc(C)c(C(=O)Nc2ccc(F)c(-c3cn4cc(NC(=O)c5c[nH]cn5)cnc4n3)c2)o1 [Compound 167] | > 50 µM | 10.8 µM | 0.904 µM | > 20 µM |
| Cc1nc(C)c(C(=O)Nc2ccc(F)c(-c3cn4cc(NC(=O)[C@@H]5CCCC[C@@H]5N)cnc4n3)c2)o1 [Compound 168] | 24.4 µM | 20.3 µM | 4.37 µM | > 18.4 µM |

| SMILES | EC50 [1] | EC50 [2] | EC50 [3] | EC50 [4] |
| --- | --- | --- | --- | --- |
| COC1CCC(C(=O)Nc2cnc3nc(-c4cc(NC(=O)c5oc(C)nc5C)ccc4F)cn3c2)CC1 (stereo not shown) [Compound 169] | 2.42 µM | 0.7 µM | 0.523 µM | 3.87 µM |
| Cc1nc(C)c(C(=O)Nc2ccc(F)c(-c3cn4cc(NC(=O)C5(C)CCCCO5)cnc4n3)c2)o1 (stereo not shown) [Compound 170] | 0.887 µM | 0.428 µM | 0.518 µM | 1.16 µM |
| Cc1n[nH]c(C(=O)Nc2cnc3nc(-c4cc(NC(=O)c5oc(C)nc5C)ccc4F)cn3c2)n1 [Compound 171] | > 50 µM | 1.54 µM | 1.41 µM | > 20 µM |
| Cc1nc(C)c(C(=O)Nc2ccc(F)c(-c3cn4cc(NC(=O)C5CN(C(=O)OC(C)(C)C)CCCO5)cnc4n3)c2)o1 (stereo not shown) [Compound 173] | 0.578 µM | 0.355 µM | 0.148 µM | 0.405 µM |
| Cc1nc(C)c(C(=O)Nc2ccc(F)c(-c3cn4cc(NC(=O)c5ccc(OCCN6CCN(C)CC6)cc5)cnc4n3)c2)o1 [Compound 175] | 12.6 µM | > 25 µM | 4.48 µM | > 20 µM |
| Cc1nc(C)c(C(=O)Nc2ccc(F)c(-c3cn4cc(NC(=O)c5nc(NC(=O)OC(C)(C)C)cn5C)cnc4n3)c2)o1 [Compound 176] | > 50 µM | > 25 µM | > 50 µM | > 20 µM |
| COC(C)C(=O)Nc1cnc2nc(-c3cc(NC(=O)c4oc(C)nc4C)ccc3F)cn2c1 (stereo not shown) [Compound 177] | 0.911 µM | 0.31 µM | 0.161 µM | 3.47 µM |
| Cc1nc(C)c(C(=O)Nc2ccc(F)c(-c3cn4cc(NC(=O)c5nc(N)cn5C)cnc4n3)c2)o1 [Compound 178] | > 42.5 µM | 6.71 µM | 2.97 µM | > 20 µM |
| Cc1nc(C)c(C(=O)Nc2ccc(F)c(-c3cn4cc(NC(=O)C5CNCCO5)cnc4n3)c2)o1 (stereo not shown) [Compound 179] | > 45.9 µM | > 25 µM | 6.96 µM | > 20 µM |
| Cc1nc(C)c(C(=O)Nc2ccc(F)c(-c3cn4cc(NC(=O)[C@@H]5[C@H](N)[C@@H]6C=C[C@H]5C6)cnc4n3)c2)o1 [Compound 180] | > 50 µM | > 25 µM | 4.38 µM | > 20 µM |
| Cc1nc(C)c(C(=O)Nc2ccc(F)c(-c3cn4cc(NC(=O)[C@H]5[C@@H](N)[C@@H]6C=C[C@H]5C6)cnc4n3)c2)o1 [Compound 181] | 33.1 µM | > 25 µM | 12.7 µM | > 20 µM |
| Cc1nc(C)c(C(=O)Nc2ccc(F)c(-c3cn4cc(NC(=O)C5CNCCCO5)cnc4n3)c2)o1 (stereo not shown) [Compound 182] | > 50 µM | > 25 µM | 10.8 µM | > 20 µM |
| Cc1nc(C(=O)Nc2cnc3nc(-c4cc(NC(=O)c5oc(C)nc5C)ccc4F)cn3c2)no1 [Compound 183] | 11.5 µM | 3.63 µM | 2.1 µM | > 20 µM |
| Cc1nc(C)c(C(=O)Nc2ccc(F)c(-c3cn4cc(NC(=O)CN(C)C)cnc4n3)c2)o1 [Compound 186] | 6.22 µM | 15.8 µM | 0.59 µM | 10.2 µM |
| Cc1nc(C)c(C(=O)Nc2ccc(F)c(-c3cn4cc(NC(=O)c5ncco5)cnc4n3)c2)o1 [Compound 188] | > 5.6 µM | 0.226 µM | 0.185 µM | 1.23 µM |
| Cc1nc(C)c(C(=O)Nc2ccc(F)c(-c3cn4cc(NC(=O)c5ccc(CN(C)C)cc5)cnc4n3)c2)o1 [Compound 189] | 15.5 µM | 9.07 µM | 4.27 µM | 10.7 µM |
| Cc1ncc(C(=O)Nc2cnc3nc(-c4cc(NC(=O)c5oc(C)nc5C)ccc4F)cn3c2)[nH]1 [Compound 190] | 8.48 µM | 0.775 µM | 0.244 µM | 12.2 µM |
| Cc1nc(C)c(C(=O)Nc2ccc(F)c(-c3cn4cc(NC(=O)C5(C)COC5)cnc4n3)c2)o1 [Compound 192] | > 25.1 µM | 3.24 µM | 1.14 µM | > 20 µM |
| Cc1nc(C)c(C(=O)Nc2ccc(F)c(-c3cn4cc(NC(=O)C5(C)CCCO5)cnc4n3)c2)o1 (stereo not shown) [Compound 193] | 0.717 µM | 0.339 µM | 0.201 µM | 1.09 µM |
| Cc1nc(C)c(C(=O)Nc2ccc(F)c(-c3cn4cc(NC(=O)C5CCN(C(C)C)CC5)cnc4n3)c2)o1 [Compound 194] | > 50 µM | > 25 µM | 29.8 µM | > 20 µM |
| Cc1nc(C)c(C(=O)Nc2ccc(F)c(-c3cn4cc(NC(=O)c5ccc(CN(C)C)cn5)cnc4n3)c2)o1 [Compound 195] | 5.33 µM | 5.64 µM | 0.463 µM | 2.04 µM |
